The data set has as its system CCRIS mutagenicity, Ames/micronucleus/aberration tests. The data set is described as follows: CCRIS mutagenicity studies.
Setting [1] is: Test System: AMES SALMONELLA TYPHIMURIUM, Strain/Indicator: TA98, Metabolic Activation: NONE, Method: PREINCUBATION
Setting [2] is: Test System: AMES SALMONELLA TYPHIMURIUM, Strain/Indicator: TA98, Metabolic Activation: RAT, LIVER, S-9, AROCLOR 1254, Method: PREINCUBATION
Setting [3] is: Test System: AMES SALMONELLA TYPHIMURIUM, Strain/Indicator: TA100, Metabolic Activation: NONE, Method: PREINCUBATION
Where [4] appears, read: Test System: AMES SALMONELLA TYPHIMURIUM, Strain/Indicator: TA100, Metabolic Activation: RAT, LIVER, S-9, AROCLOR 1254, Method: PREINCUBATION
Where [5] appears, read: Test System: AMES SALMONELLA TYPHIMURIUM, Strain/Indicator: TA102, Metabolic Activation: NONE, Method: PREINCUBATION
Where [6] appears, read: Test System: AMES SALMONELLA TYPHIMURIUM, Strain/Indicator: TA102, Metabolic Activation: RAT, LIVER, S-9, AROCLOR 1254, Method: PREINCUBATION
Setting [7] is: Test System: AMES SALMONELLA TYPHIMURIUM, Strain/Indicator: TA100, Metabolic Activation: NONE, Method: STANDARD PLATE.

Active and inactive are the calls of the source. No rule for the calls is given here.

Regarding `FC(C(F)(F)F)C(F)(F)F`, the mutagenic call is “inactive; negative” (Test System: AMES SALMONELLA TYPHIMURIUM, Strain/Indicator: TA98, Metabolic Activation: NONE, Method: DESICCATOR); “inactive; negative” (Test System: AMES SALMONELLA TYPHIMURIUM, Strain/Indicator: TA98, Metabolic Activation: NONE, Method: VAPOR CHAMBER); “inactive; negative” (Test System: AMES SALMONELLA TYPHIMURIUM, Strain/Indicator: TA98, Metabolic Activation: RAT, LIVER, S-9, AROCLOR 1254, Method: DESICCATOR); “inactive; negative” (Test System: AMES SALMONELLA TYPHIMURIUM, Strain/Indicator: TA98, Metabolic Activation: RAT, LIVER, S-9, AROCLOR 1254, Method: VAPOR CHAMBER); “inactive; negative” (Test System: AMES SALMONELLA TYPHIMURIUM, Strain/Indicator: TA100, Metabolic Activation: NONE, Method: DESICCATOR); “inactive; negative” (Test System: AMES SALMONELLA TYPHIMURIUM, Strain/Indicator: TA100, Metabolic Activation: NONE, Method: VAPOR CHAMBER). Moreover, the mutagenic call is, setting by setting: (Test System: AMES SALMONELLA TYPHIMURIUM, Strain/Indicator: TA100, Metabolic Activation: RAT, LIVER, S-9, AROCLOR 1254, Method: DESICCATOR) “inactive; negative”; (Test System: AMES SALMONELLA TYPHIMURIUM, Strain/Indicator: TA100, Metabolic Activation: RAT, LIVER, S-9, AROCLOR 1254, Method: VAPOR CHAMBER) “inactive; negative”; (Test System: AMES SALMONELLA TYPHIMURIUM, Strain/Indicator: TA1535, Metabolic Activation: NONE, Method: DESICCATOR) “inactive; negative”; (Test System: AMES SALMONELLA TYPHIMURIUM, Strain/Indicator: TA1535, Metabolic Activation: NONE, Method: VAPOR CHAMBER) “inactive; negative”; (Test System: AMES SALMONELLA TYPHIMURIUM, Strain/Indicator: TA1535, Metabolic Activation: RAT, LIVER, S-9, AROCLOR 1254, Method: DESICCATOR) “inactive; negative”; (Test System: AMES SALMONELLA TYPHIMURIUM, Strain/Indicator: TA1535, Metabolic Activation: RAT, LIVER, S-9, AROCLOR 1254, Method: VAPOR CHAMBER) “inactive; negative”. In addition, the mutagenic call reads like this: (Test System: AMES SALMONELLA TYPHIMURIUM, Strain/Indicator: TA1537, Metabolic Activation: NONE, Method: DESICCATOR) “inactive; negative”; (Test System: AMES SALMONELLA TYPHIMURIUM, Strain/Indicator: TA1537, Metabolic Activation: NONE, Method: VAPOR CHAMBER) “inactive; negative”; (Test System: AMES SALMONELLA TYPHIMURIUM, Strain/Indicator: TA1537, Metabolic Activation: RAT, LIVER, S-9, AROCLOR 1254, Method: DESICCATOR) “inactive; negative”; (Test System: AMES SALMONELLA TYPHIMURIUM, Strain/Indicator: TA1537, Metabolic Activation: RAT, LIVER, S-9, AROCLOR 1254, Method: VAPOR CHAMBER) “inactive; negative”; (Test System: AMES SALMONELLA TYPHIMURIUM, Strain/Indicator: TA1538, Metabolic Activation: NONE, Method: DESICCATOR) “inactive; negative”; (Test System: AMES SALMONELLA TYPHIMURIUM, Strain/Indicator: TA1538, Metabolic Activation: NONE, Method: VAPOR CHAMBER) “inactive; negative”. The mutagenic call is “inactive; negative” (Test System: AMES SALMONELLA TYPHIMURIUM, Strain/Indicator: TA1538, Metabolic Activation: RAT, LIVER, S-9, AROCLOR 1254, Method: DESICCATOR); “inactive; negative” (Test System: AMES SALMONELLA TYPHIMURIUM, Strain/Indicator: TA1538, Metabolic Activation: RAT, LIVER, S-9, AROCLOR 1254, Method: VAPOR CHAMBER); “inactive; negative” (Test System: MOUSE LYMPHOMA, Strain/Indicator: L5178Y (TK+/TK-), Metabolic Activation: NONE, Method: SUSPENSION/PLATE); “inactive; negative” (Test System: MOUSE LYMPHOMA, Strain/Indicator: L5178Y (TK+/TK-), Metabolic Activation: RAT, LIVER, S-9, AROCLOR 1254, Method: SUSPENSION/PLATE).
In the case of `Cn1cccc1`, the mutagenic call under setting [1] was “inactive; negative”; the mutagenic call under setting [2] is “inactive; negative”; the mutagenic call under setting [3] is “inactive; negative”; the mutagenic call under setting [4] is “inactive; negative”; the mutagenic call under setting [5] was “inactive; negative”; the mutagenic call under setting [6] is “inactive; negative”.
With `O=NN(c1ccc([N+](=O)[O-])cc1)C1OC[C@@H](O)[C@H](O)[C@@H]1O` (stereo partly drawn), the mutagenic call under setting [7] is “active; positive”.
Regarding `NC(=O)c1nnn(Cc2cc(Cl)c(C(=O)c3ccc(Cl)cc3)c(Cl)c2)c1N`, the mutagenic call is, setting by setting: (Test System: Mouse lymphoma, Strain/Indicator: L5178Y (tk+/tk-), Metabolic Activation: None, Method: Suspension/plate) “inactive; inconclusive (previous evaluation negative)”; (Test System: Mouse lymphoma, Strain/Indicator: L5178Y (tk+/tk-), Metabolic Activation: Rat, Liver, S-9, Aroclor 1254, Method: Suspension/plate) “inactive; negative”.
Consider `Oc1cccc(Cl)c1`, for which the mutagenic call is “active; positive” (Test System: AMES SALMONELLA TYPHIMURIUM, Strain/Indicator: TA97, Metabolic Activation: NONE, Method: STANDARD PLATE); “active; positive” (Test System: AMES SALMONELLA TYPHIMURIUM, Strain/Indicator: TA97, Metabolic Activation: RAT, LIVER, S-9, AROCLOR 1254, Method: STANDARD PLATE); “active; positive” (Test System: AMES SALMONELLA TYPHIMURIUM, Strain/Indicator: TA98, Metabolic Activation: NONE, Method: STANDARD PLATE); “active; positive” (Test System: AMES SALMONELLA TYPHIMURIUM, Strain/Indicator: TA98, Metabolic Activation: RAT, LIVER, S-9, AROCLOR 1254, Method: STANDARD PLATE); “active; positive” under setting [7]; “inactive; negative” (Test System: AMES SALMONELLA TYPHIMURIUM, Strain/Indicator: TA100, Metabolic Activation: RAT, LIVER, S-9, AROCLOR 1254, Method: STANDARD PLATE). In addition, the mutagenic call was “inactive; negative” (Test System: AMES SALMONELLA TYPHIMURIUM, Strain/Indicator: TA104, Metabolic Activation: NONE, Method: STANDARD PLATE) and “inactive; negative” (Test System: AMES SALMONELLA TYPHIMURIUM, Strain/Indicator: TA104, Metabolic Activation: RAT, LIVER, S-9, AROCLOR 1254, Method: STANDARD PLATE).
In the case of `CC1=C(O)C(=O)CO1`, the mutagenic call was “active; positive” under setting [3] and “active; positive” (Test System: AMES SALMONELLA TYPHIMURIUM, Strain/Indicator: TA100, Metabolic Activation: RAT, LIVER, S-9, PHENOBARBITAL AND 5,6-BENZOFLAVONE, Method: PREINCUBATION).
For the compound `NC(CNCCCC[C@H](N)C(=O)O)C(=O)O` (stereo partly drawn), the mutagenic call runs as follows: (Test System: AMES SALMONELLA TYPHIMURIUM, Strain/Indicator: TA97, Metabolic Activation: NONE, Method: PREINCUBATION) “inactive; negative”; (Test System: AMES SALMONELLA TYPHIMURIUM, Strain/Indicator: TA97, Metabolic Activation: RAT, KIDNEY, S-9, AROCLOR 1254, Method: PREINCUBATION) “inactive; negative”; (Test System: AMES SALMONELLA TYPHIMURIUM, Strain/Indicator: TA97, Metabolic Activation: RAT, LIVER, S-9, AROCLOR 1254, Method: PREINCUBATION) “inactive; negative”; under setting [1], “inactive; negative”; (Test System: AMES SALMONELLA TYPHIMURIUM, Strain/Indicator: TA98, Metabolic Activation: RAT, KIDNEY, S-9, AROCLOR 1254, Method: PREINCUBATION) “inactive; negative”; under setting [2], “inactive; negative”. Moreover, the mutagenic call reads like this: under setting [3], “inactive; negative”; (Test System: AMES SALMONELLA TYPHIMURIUM, Strain/Indicator: TA100, Metabolic Activation: RAT, KIDNEY, S-9, AROCLOR 1254, Method: PREINCUBATION) “inactive; negative”; under setting [4], “inactive; negative”; under setting [5], “inactive; negative”; (Test System: AMES SALMONELLA TYPHIMURIUM, Strain/Indicator: TA102, Metabolic Activation: RAT, KIDNEY, S-9, AROCLOR 1254, Method: PREINCUBATION) “inactive; negative”; under setting [6], “inactive; negative”.

For the origin of these results see PubChem BioAssay AID1259407 (Chemical Carcinogenesis Research Information System (CCRIS), 2018).
